{"source": "patent US9464106B2", "about": "“Oligonucleotides useful for detecting and analyzing nucleic acids of interest” (Exiqon A/S, priority 2002, dated 2016)", "key": {"[1]": {"tested_on": "DNA target 3′-d(CACTYTACG)", "conditions": "data reported earlier; cited from earlier work"}, "[2]": {"tested_on": "DNA target 3′-d(CACTYTACG)", "test": "Thermal denaturation of ON1-ON11 towards DNA complements", "type": "binding", "conditions": "1.5 μM of the two strands"}, "[3]": {"tested_on": "C. elegans genes relevant for general stress response and metabolism of toxic compounds"}, "[4]": {"tested_on": "human chromosome 21 alphaRI (680) locus alpha-satellite repeat", "test": "FISH with chromosome-21 specific centromere LNA probes", "type": "binding", "conditions": "40 min. hybridization at RT"}, "[5]": {"tested_on": "splice variant #1 and #2 transcripts spiked into C. elegans total RNA", "test": "Splice variant ratio detection with merged LNA block capture probes (Example 9)", "type": "binding", "conditions": "signal ratio KU007/KU008, Cy5, normalized"}, "[6]": {"tested_on": "human telomere repeat", "test": "FISH with human telomere repeat LNA probe", "type": "binding", "conditions": "5 pmoles probe, 30 min. hybridization at 37° C.", "description": "Chromosome preparations were made by standard methods from peripheral lymphocyte cultures of two normal males. Slides were prepared 1-6 days prior to an experiment and treated with RNAse (10 μg/μl) at 37° C. for one hour before hybridization. […] FISH was carried out as described previously (Silahtaroglu et al, 1998) with the following modifications. […] Slides were washed after 30 min. hybridization at 37° C. Post washing steps included a 2×5 min 0.1×SSC at 60° C.; 5 min 2×SSC at 37° C.; 3 min 4×SSC/0.05% Tween20 at 37° C. and 5 min PBS. […] The whole procedure was carried out in the dark. The signals were visualized using a Leica DMRB epifluorescence microscope equipped with a SenSys charge-coupled device camera (Photometrics, Tucson, Ariz.), and IPLAB Spectrum Quips FISH software (Applied Imaging international Ltd., Newcastle, UK)."}, "[7]": {"conditions": "C. elegans, incubation 24 hours"}}, "note": "Read-outs that look alike come from different tables or passages of the source. l = locked nucleic acid (LNA); {Biotin} = biotin label; d = 2'-deoxy (DNA)", "data": [{"compound": "5′-d(GTGATATGC) [ON1]", "values": [{"measurement": "Tm, Y = A", "setting": "[1]", "value": 28, "unit": "°C"}, {"measurement": "Tm, Y = C", "setting": "[1]", "value": 11, "unit": "°C"}, {"measurement": "Tm, Y = G", "setting": "[1]", "value": 12, "unit": "°C"}, {"measurement": "Tm, Y = T", "setting": "[1]", "value": 19, "unit": "°C"}]}, {"compound": "5′-d[2′-OMe(GTGATATGC)] [ON5, reference compound]", "values": [{"measurement": "Tm, Y = A", "setting": "[2]; 10 mM sodium phosphate, 100 mM sodium chloride, 0.1 mM EDTA, pH 7.0", "value": 35, "unit": "°C"}, {"measurement": "Tm, Y = C", "setting": "[2]; medium salt buffer", "value": 14, "unit": "°C"}, {"measurement": "Tm, Y = G", "setting": "[2]; medium salt buffer", "value": 19, "unit": "°C"}, {"measurement": "Tm, Y = T", "setting": "[2]; medium salt buffer", "value": 21, "unit": "°C"}]}, {"compound": "Cc1c(OCC(F)(F)F)ccnc1C[S+]([O-])c1nc2ccccc2[nH]1", "note": "(stereo not shown) [Lansoprazole]", "values": [{"measurement": "Log2 transformed fold of change, HSP90 (C47E8.5)", "setting": "[3]; [7]", "value": "−1.17"}, {"measurement": "Log2 transformed fold of change, Ubiquitin (M7.1)", "setting": "[3]; [7]", "value": "−0.12"}, {"measurement": "Log2 transformed fold of change, CYP37A (F01D5.9)", "setting": "[3]; in vivo", "value": 0.98}]}, {"compound": "Nc1ncc2ncn([C@@H]3O[C@@]4(CO)CO[C@@H]3[C@@H]4O)c2n1", "note": "[compound 23, (1S,3R,4R,7S)-3-(2-aminopurin-9-yl)-7-hydroxy-1-hydroxymethyl-2,5-dioxabicyclo[2.2.1]heptane]", "values": [{"measurement": "melting point", "value": "227.5 to 229 °C (dec.)"}]}, {"compound": "TgTgTaCcCaGcCaAaGgAgTtGa (TGTGTACCCAGCCAAAGGAGTTGA; sugars from the 5' end ldldldldldldldldldldldld, 5' {Biotin}, backbone and methylation of C not given here) [5′ biotin-labelled 24-mer FISH probe]", "values": [{"measurement": "FISH signals on chromosomes", "setting": "[4]", "value": "prominent signals both on chromosomes 13 and 21"}]}, {"compound": "aCcCaGcCaAaGgAg (ACCCAGCCAAAGGAG; sugars from the 5' end dldldldldldldld, 5' {Biotin}, backbone and methylation of C not given here) [5′ biotin-labelled 15-mer FISH probe]", "values": [{"measurement": "FISH signals on chromosomes", "setting": "[4]", "value": "prominent signals on chromosome 21"}]}, {"compound": "gtccagtatcgtccatcatAGTATcgataaatatgtgaaggaaatgcctg (as printed in the source, key not given here) [gene78.mINS303_50_block]", "values": [{"measurement": "Observed ratio (log2) with merged LNA block capture probes", "setting": "[5]", "value": 3.11}]}, {"compound": "ttagggttagggttagggttaggg [human telomere repeat specific LNA oligonucleotide probe] (TTAGGGTTAGGGTTAGGGTTAGGG)", "values": [{"measurement": "FISH signals on telomeres", "setting": "[6]", "value": "prominent signals on the telomeres"}]}]}
